# Laboratory results taken from patent US9803021B2 (The Regents of the University of California, priority 2012, dated 2017).
# Experiments:
# [1] = system: 8226/Dox40; test: MTS assay (cell viability / metabolic activity); format: cell-based, human; details: 8226/Dox40, 3 days
# Description: (§1) Percent cell viability was determined using MTS solution (Promega, Madison, Wis.) by measuring absorbance at 490 nm using a Synergy HT Multi-Detection Microplate Reader (BioTek Instruments, Inc., Winooski, Vt.) with untreated cells being 100%. GraphPad Prism (GraphPad Software Inc., La Jolla, Calif.) was used to analyze data by non-linear regression with the log (inhibitor) vs. the response with a variable slope with the IC50 calculated. Data are expressed as a percentage of maximum metabolic activity. The experiments were performed in triplicate.
# (§2) To determine if the HMCLs were sensitive to treatment with IFNα fusion protein, HMCLs were incubated with varying concentrations of anti-CD138-IFNα, and cell viability was assessed. Anti-CD138-IFNα was used to target IFNα to the MM cell lines while anti-CD20-IFNα was used as an untargeted control. After 3 days of treatment, cell viability was measured by MTS activity. The MM cell lines differed in their response to treatment with the fusion proteins.
# [2] = system: Delta 47; test: MTS assay (cell viability / metabolic activity); format: cell-based, human
# Description: as §1, §2
# [3] = system: OPM-1; test: MTS assay (cell viability / metabolic activity); format: cell-based, human
# Description: as §1, §2
# [4] = system: S6B45; test: MTS assay (cell viability / metabolic activity); format: cell-based, human; details: S6B45, 3 days
# Description: as §1, §2
# [5] = system: XG-1; test: MTS assay (cell viability / metabolic activity); format: cell-based, human; details: XG-1, 3 days
# Description: as §1, §2
# [6] = system: XG-2; test: MTS assay (cell viability / metabolic activity); format: cell-based, human; details: XG-2, 3 days
# Description: as §1, §2
# [7] = system: ANBL-6; test: Cell cycle analysis (PI DNA content, flow cytometry); format: cell-based, human; details: ANBL-6, 500 pM, 4 days
# Description: (§3) Cells were incubated with 1 ml of hypotonic DNA staining buffer (1 mg/ml sodium citrate, 100 μg/ml PI, 20 μg/ml RNase A, and 0.3% Triton X-100 in dH2O) for 30-60 min at 4° C. in the dark. Cells were analyzed by flow cytometry and cell cycle analysis performed using FlowJo software with the Watson Model.
# (§4) Cells were incubated with 1 ml of hypotonic DNA staining buffer (1 mg/ml sodium citrate, 100 μg/ml PI, 20 μg/ml RNase A, and 0.3% Triton X-100) for 30-60 minutes at 4° C. in the dark. Cells were analyzed by flow cytometry and cell cycle analysis performed using FlowJo software with the Watson Model.
# [8] = system: MM1-144; test: as above; format: cell-based, human; details: MM1-144, 500 pM, 4 days
# Description: as §3, §4
# [9] = system: NCI-H929; test: as above; format: cell-based, human; details: NCI-H929, 500 pM, 4 days
# Description: as §3, §4
# [10] = system: OCI-My5; test: as above; format: cell-based, human; details: OCI-My5, 500 pM, 4 days
# Description: as §3, §4
# [11] = system: U266; test: as above; format: cell-based, human; details: U266, 500 pM, 4 days
# Description: as §3, §4
# [12] = system: ppRb in MM1-144; test: Western blot of ppRb; format: cell-based, human; details: MM1-144, 1 nM, 48 hours
# Description: (§5) Cells were lysed using RIPA buffer (50 mM Tris HCl pH 8, 150 mM NaCl, 1% NP-40, 0.5% sodium deoxycholate, 0.1% SDS) containing a protease inhibitor cocktail (Roche Applied Science, Indianapolis, Ind.). The cytosolic fractions were reduced with β-mercaptoethanol and separated by SDS-PAGE. Following transfer to nitrocellulose membrane (Whatman, Piscataway, N.J.) and blocking, samples were incubated with the following primary rabbit antibodies: anti-IRF4 (Epitomics, Berlingham, Calif.), anti-glyceraldehyde-3-phosphate dehydrogenase (GAPDH; Sigma), anti-ppRb Ser807/811 (Santa Cruz Biotechnology, Santa Cruz, Calif.), anti-cyclin D (Millipore, Billerica, Mass.), or anti-β tubulin (Abcam, Cambridge, Mass.). Secondary anti-rabbit IgG-HRP (GE Healthcare, Billerica, Mass.) was used and the blots were developed using enhanced chemiluminescence (ECL; Thermo Scientific, Waltham, Mass.).
# (§6) Cells were lysed using RIPA buffer (50 mM Tris-HCl pH 8, 150 mM NaCl, 1% NP-40, 0.5% sodium deoxycholate, 0.1% SDS) containing a protease inhibitor cocktail (Roche Applied Science). The cytosolic fractions were reduced with β-mercaptoethanol and separated by SDS PAGE. Following transfer to nitrocellulose membrane (Whatman) and blocking, samples were incubated with the following primary rabbit antibodies: anti-IRF-4 (Epitomics), anti-glyceraldehyde-3-phosphate dehydrogenase (GAPDH; Sigma), or anti-ppRb Ser807/811 (Santa Cruz Biotechnology). Secondary anti-rabbit IgG-HRP (GE Healthcare) was used and the blots were developed using enhanced chemiluminescence (ECL; Thermo Scientific). Films were imaged using a Multilmage™ Light Cabinet (Alpha Innotech Corp.) and analyzed using NIH Image J. Bands were normalized to a GAPDH loading control and expressed as percentage band intensity of untreated cells.
# [13] = system: ppRb in NCI-H929; test: Western blot of ppRb; format: cell-based, human; details: NCI-H929, 1 nM, 48 hours
# Description: as §5, §6
# [14] = system: ppRb in OCI-My5; test: Western blot of ppRb; format: cell-based, human; details: OCI-My5, 1 nM, 48 hours
# Description: as §5, §6
# [15] = system: OCI-My 5 tumors; test: OCI-My5 xenograft model in SCID mice; format: in vivo, mouse; details: OCI-My5 s.c.
# Text: Eight mice were included in each group.
# Each group consisted of eight mice.
# [16] = system: U266 tumors; test: U266 xenograft model in NSG mice; details: U266 s.c.
# Description: For U266 tumors, NOD scid IL-2 receptor gamma chain knock out (NSG) mice were injected subcutaneously with 1×10^7 U226 cells and treated on days 14, 16 and 18 with 100 μg of the indicated proteins. […] Survival was monitored as well as the size of the tumors.
# For U266 tumors, experiments were carried out as described above except that NOD-scid IL2rγ^null (NSG) mice were used.
substance,measurement,setting,value
"anti-CD138-IFNα: Fusion protein: murine B-B4 anti-CD138 variable regions, human IgG1κ constant regions, human IFNα2 fused to the antibody C-terminus via SGGGGS linker","cell viability (MTS assay), result in words",[1],intermediate effect
same,"cell viability (MTS assay), result in words",[1]; listed as Anti-CD138-IFNα2,some effect was observed only at high concentrations
same,"cell viability (MTS assay), result in words","[2]; Delta 47, 3 days",little or no effect
same,"cell viability (MTS assay), result in words","[2]; Delta 47, treatment increased to 4 days (data not shown)",decrease in viability
same,"cell viability (MTS assay), result in words","[3]; OPM-1, 3 days",little or no effect
same,"cell viability (MTS assay), result in words","[3]; OPM-1, treatment increased to 4 days (data not shown)",decrease in viability
same,"cell viability (MTS assay), result in words",[4],intermediate effect
same,"cell viability (MTS assay), result in words",[4]; listed as Anti-CD138-IFNα2,some effect was observed only at high concentrations
same,"cell viability (MTS assay), result in words",[5],little or no effect
same,"cell viability (MTS assay), result in words",[6],little or no effect
same,% G1,[7],63.6%
same,% G2/M,[7],18.0%
same,% S,[7],14.0%
same,>G2,[7],0.0%
same,Sub G0/G1,[7],19.6%
same,% G1,[8],22.6%
same,% G2/M,[8],34.3%
same,% S,[8],29.9%
same,>G2,[8],11.2%
same,Sub G0/G1,[8],11.3%
same,% G1,[9],41.9%
same,% G2/M,[9],24.3%
same,% S,[9],21.0%
same,>G2,[9],8.2%
same,Sub G0/G1,[9],18.9%
same,% G1,[10],25.6%
same,% G2/M,[10],20.5%
same,% S,[10],49.0%
same,>G2,[10],1.5%
same,Sub G0/G1,[10],17.9%
same,"changes in cell cycle / DNA content, result in words",[10],did not cause apoptosis or blocks to cell cycle progression
same,% G1,[11],53.9%
same,% G2/M,[11],15.1%
same,% S,[11],21.4%
same,>G2,[11],5.5%
same,Sub G0/G1,[11],13.2%
same,ppRb levels (Western blot),[12],decreased
same,ppRb levels (Western blot),[13],decreased
same,ppRb levels (Western blot),[14],decreased
same,"survival / protection, result in words","[15]; 100 μg i.v. on days 14, 16, 18",significant increase in survival
same,"survival / protection, result in words","[15]; 100 μg i.v. on days 14, 16, 18, listed as anti-CD138-IFNα2",greater protection
same,"survival / protection against tumor growth, result in words","[16]; 100 μg on days 14, 16, 18",much more effective than untargeted anti-DNS-IFNα
same,"survival / protection against tumor growth, result in words","[16]; 100 μg on days 14, 16, 18, listed as anti-CD138-IFNα2",highest levels of protection
